Experimental data as given in the NIST ThermoML archive (doi:10.1016/j.jct.2015.04.027).
Numbers after ± are expanded uncertainties.

How the values were obtained:
[1] = 100 kPa, Liquid; for viscosity: Falling or rolling sphere viscometry; for mass density: Vibrating tube method
[2] = xn = mol fraction of the nth substance listed; conditions: 100 kPa, Liquid, x2 = 0; for viscosity: Falling or rolling sphere viscometry; for mass density: Vibrating tube method

| Compound | viscosity ([1]; 293.15 K) | mass density ([1]; 293.15 K) | viscosity ([1]; 298.15 K) | mass density ([1]; 298.15 K) | viscosity ([1]; 303.15 K) | mass density ([1]; 303.15 K) | viscosity ([1]; 308.15 K) | mass density ([1]; 308.15 K) | viscosity ([1]; 313.15 K) | mass density ([1]; 313.15 K) | viscosity ([2]; 293.15 K) | mass density ([2]; 293.15 K) | viscosity ([2]; 298.15 K) | mass density ([2]; 298.15 K) | viscosity ([2]; 303.15 K) | mass density ([2]; 303.15 K) | viscosity ([2]; 308.15 K) | mass density ([2]; 308.15 K) | viscosity ([2]; 313.15 K) | mass density ([2]; 313.15 K) |
| --- | --- | --- | --- | --- | --- | --- | --- | --- | --- | --- | --- | --- | --- | --- | --- | --- | --- | --- | --- | --- |
| CN(C)C(=[NH2+])N(C)C.c1c[n-]cn1 [1,1,3,3-tetramethylguanidinium imidazol-1-ide] | 8.952 ± 0.2 mPa·s | 997.25 ± 0.25 kg/m3 | 7.287 ± 0.16 mPa·s | 992.8 ± 0.25 kg/m3 | 6.044 ± 0.13 mPa·s | 988.35 ± 0.25 kg/m3 | 5.097 ± 0.11 mPa·s | 983.9 ± 0.25 kg/m3 | 4.358 ± 0.096 mPa·s | 979.46 ± 0.25 kg/m3 | – | – | – | – | – | – | – | – | – | – |
| CCCCO [butan-1-ol] | 2.918 ± 0.062 mPa·s | 809.72 ± 0.16 kg/m3 | 2.566 ± 0.055 mPa·s | 805.92 ± 0.16 kg/m3 | 2.272 ± 0.049 mPa·s | 802.08 ± 0.16 kg/m3 | 2.024 ± 0.043 mPa·s | 798.21 ± 0.16 kg/m3 | 1.81 ± 0.039 mPa·s | 794.3 ± 0.17 kg/m3 | – | – | – | – | – | – | – | – | – | – |
| CCCCO [butan-1-ol] + CN(C)C(=[NH2+])N(C)C.c1c[n-]cn1 | – | – | – | – | – | – | – | – | – | – | 2.918 ± 0.062 mPa·s | 809.72 ± 0.16 kg/m3 | 2.566 ± 0.055 mPa·s | 805.92 ± 0.16 kg/m3 | 2.272 ± 0.049 mPa·s | 802.08 ± 0.16 kg/m3 | 2.024 ± 0.043 mPa·s | 798.21 ± 0.16 kg/m3 | 1.81 ± 0.039 mPa·s | 794.3 ± 0.17 kg/m3 |
| CCO [ethanol] | 1.186 ± 0.025 mPa·s | 789.51 ± 0.17 kg/m3 | 1.083 ± 0.023 mPa·s | 785.4 ± 0.17 kg/m3 | 0.987 ± 0.021 mPa·s | 780.83 ± 0.17 kg/m3 | 0.903 ± 0.019 mPa·s | 776.48 ± 0.17 kg/m3 | 0.829 ± 0.018 mPa·s | 772.15 ± 0.17 kg/m3 | – | – | – | – | – | – | – | – | – | – |
| CCO [ethanol] + CN(C)C(=[NH2+])N(C)C.c1c[n-]cn1 | – | – | – | – | – | – | – | – | – | – | 1.186 ± 0.025 mPa·s | 789.51 ± 0.17 kg/m3 | 1.083 ± 0.023 mPa·s | 785.4 ± 0.17 kg/m3 | 0.987 ± 0.021 mPa·s | 780.83 ± 0.17 kg/m3 | 0.903 ± 0.019 mPa·s | 776.48 ± 0.17 kg/m3 | 0.829 ± 0.018 mPa·s | 772.15 ± 0.17 kg/m3 |
| CO [methanol] | 0.597 ± 0.013 mPa·s | 791.35 ± 0.17 kg/m3 | 0.559 ± 0.012 mPa·s | 786.67 ± 0.18 kg/m3 | 0.518 ± 0.011 mPa·s | 781.94 ± 0.18 kg/m3 | 0.493 ± 0.011 mPa·s | 777.2 ± 0.18 kg/m3 | 0.466 ± 0.01 mPa·s | 772.42 ± 0.18 kg/m3 | – | – | – | – | – | – | – | – | – | – |
| CO [methanol] + CN(C)C(=[NH2+])N(C)C.c1c[n-]cn1 | – | – | – | – | – | – | – | – | – | – | 0.597 ± 0.013 mPa·s | 791.35 ± 0.17 kg/m3 | 0.559 ± 0.012 mPa·s | 786.67 ± 0.18 kg/m3 | 0.518 ± 0.011 mPa·s | 781.94 ± 0.18 kg/m3 | 0.493 ± 0.011 mPa·s | 777.2 ± 0.18 kg/m3 | 0.466 ± 0.01 mPa·s | 772.42 ± 0.18 kg/m3 |
| CCCO [propan-1-ol] | 2.217 ± 0.047 mPa·s | 803.75 ± 0.16 kg/m3 | 1.955 ± 0.042 mPa·s | 799.71 ± 0.17 kg/m3 | 1.736 ± 0.037 mPa·s | 795.65 ± 0.17 kg/m3 | 1.55 ± 0.033 mPa·s | 791.56 ± 0.17 kg/m3 | 1.389 ± 0.03 mPa·s | 787.42 ± 0.17 kg/m3 | – | – | – | – | – | – | – | – | – | – |
| CCCO [propan-1-ol] + CN(C)C(=[NH2+])N(C)C.c1c[n-]cn1 | – | – | – | – | – | – | – | – | – | – | 2.217 ± 0.047 mPa·s | 803.75 ± 0.16 kg/m3 | 1.955 ± 0.042 mPa·s | 799.71 ± 0.17 kg/m3 | 1.736 ± 0.037 mPa·s | 795.65 ± 0.17 kg/m3 | 1.55 ± 0.033 mPa·s | 791.56 ± 0.17 kg/m3 | 1.389 ± 0.03 mPa·s | 787.42 ± 0.17 kg/m3 |
